Assay results published in ChEMBL document CHEMBL5537113, “Discovery of 1,2-diaryl-3-oxopyrazolidin-4-carboxamides as a new class of MurA enzyme inhibitors and characterization of their antibacterial activity” (Eur J Med Chem, 2023).

How the values were obtained:
[1] = molecular target: UDP-N-acetylglucosamine 1-carboxyvinyltransferase (Escherichia coli K-12) (UniProt P0A749); test: Inhibition of Escherichia coli K12 His-tagged MurA expressed in Escherichia coli BL21 cells at 50 uM using UNAG as substrate pre incubated for 15 mins followed by substrate addition and measured after 15 mins by microplate reader analysis relative to control; settings: time 30.0 min
[2] = molecular target: UDP-N-acetylglucosamine 1-carboxyvinyltransferase (Escherichia coli K-12, UniProt P0A749); test: Inhibition of Escherichia coli K12 His-tagged MurA expressed in Escherichia coli BL21 cells using UNAG as substrate pre incubated for 15 mins followed by substrate addition and measured after 15 mins by microplate reader analysis
Staphylococcus aureus [3] = test: Antibacterial activity against Staphylococcus aureus Newman D2C NCTC 10833 assessed as reduction in microbial growth incubated for 16 hrs by serial dilution method; assay type: functional
Staphylococcus aureus [4] = test: Antibacterial activity against methicillin sensitive Staphylococcus aureus NRS107 assessed as reduction in microbial growth by CLSI based broth microdilution method; assay type: functional
Staphylococcus aureus [5] = test: Antibacterial activity against vancomycin resistant Staphylococcus aureus 10 assessed as reduction in microbial growth by CLSI based broth microdilution method; assay type: functional
Streptococcus pneumoniae = test: Antibacterial activity against Streptococcus pneumoniae ATCC 700677 assessed as reduction in microbial growth by CLSI based broth microdilution method; assay type: functional
Enterococcus faecalis = test: Antibacterial activity against Enterococcus faecalis ATCC 51299 assessed as reduction in microbial growth by CLSI based broth microdilution method; assay type: functional
Clostridioides difficile [6] = test: Antibacterial activity against Clostridioides difficile ATCC BAA1870 assessed as reduction in microbial growth incubated for 48 hrs by broth microdilution method; assay type: functional
Clostridioides difficile [7] = test: Antibacterial activity against Clostridioides difficile NR-32895 assessed as reduction in microbial growth incubated for 48 hrs by broth microdilution method; assay type: functional
Clostridioides difficile [8] = test: Antibacterial activity against Clostridioides difficile NR-32889 assessed as reduction in microbial growth incubated for 48 hrs by broth microdilution method; assay type: functional
Clostridioides difficile [9] = test: Antibacterial activity against Clostridioides difficile NR-32903 assessed as reduction in microbial growth incubated for 48 hrs by broth microdilution method; assay type: functional
Clostridioides difficile [10] = test: Antibacterial activity against Clostridioides difficile NR-32904 assessed as reduction in microbial growth incubated for 48 hrs by broth microdilution method; assay type: functional
Clostridioides difficile [11] = test: Antibacterial activity against Clostridioides difficile NR-13427 assessed as reduction in microbial growth incubated for 48 hrs by broth microdilution method; assay type: functional
Clostridioides difficile [12] = test: Antibacterial activity against Clostridioides difficile NR-13436 assessed as reduction in microbial growth incubated for 48 hrs by broth microdilution method; assay type: functional
Clostridioides difficile [13] = test: Antibacterial activity against Clostridioides difficile NR-49279 assessed as reduction in microbial growth incubated for 48 hrs by broth microdilution method; assay type: functional
Clostridioides difficile [14] = test: Antibacterial activity against Clostridioides difficile NR-49284 assessed as reduction in microbial growth incubated for 48 hrs by broth microdilution method; assay type: functional
Clostridioides difficile [15] = test: Antibacterial activity against Clostridioides difficile NR-49285 assessed as reduction in microbial growth incubated for 48 hrs by broth microdilution method; assay type: functional
Clostridioides difficile [16] = test: Antibacterial activity against Clostridioides difficile NR-49286 assessed as reduction in microbial growth incubated for 48 hrs by broth microdilution method; assay type: functional
Clostridioides difficile [17] = test: Antibacterial activity against Clostridioides difficile NR-49287 assessed as reduction in microbial growth incubated for 48 hrs by broth microdilution method; assay type: functional
Clostridioides difficile [18] = test: Antibacterial activity against Clostridioides difficile NR-49288 assessed as reduction in microbial growth incubated for 48 hrs by broth microdilution method; assay type: functional
Clostridioides difficile [19] = test: Antibacterial activity against Clostridioides difficile NR-49291 assessed as reduction in microbial growth incubated for 48 hrs by broth microdilution method; assay type: functional
Clostridioides difficile [20] = test: Antibacterial activity against Clostridioides difficile NR-49294 assessed as reduction in microbial growth incubated for 48 hrs by broth microdilution method; assay type: functional
Clostridioides difficile [21] = test: Antibacterial activity against Clostridioides difficile ATCC 43255 assessed as reduction in microbial growth incubated for 48 hrs by broth microdilution method; assay type: functional
Clostridioides difficile [22] = test: Antibacterial activity against Clostridioides difficile HM-88 assessed as reduction in microbial growth incubated for 48 hrs by broth microdilution method; assay type: functional
Clostridioides difficile [23] = test: Bactericidal activity against Clostridioides difficile NR-32895 assessed as reduction in microbial growth by broth microdilution method; assay type: functional
Clostridioides difficile [24] = test: Bactericidal activity against Clostridioides difficile NR-32904 assessed as reduction in microbial growth by broth microdilution method; assay type: functional
Clostridioides difficile [25] = test: Bactericidal activity against Clostridioides difficile NR-49278 assessed as reduction in microbial growth by broth microdilution method; assay type: functional
Clostridioides difficile [26] = test: Bactericidal activity against Clostridioides difficile NR-49284 assessed as reduction in microbial growth by broth microdilution method; assay type: functional
Clostridioides difficile [27] = test: Bactericidal activity against Clostridioides difficile ATCC BAA1870 assessed as reduction in microbial growth by broth microdilution method; assay type: functional
Bacteroides fragilis [28] = test: Antibacterial activity against Bacteroides fragilis HM 20 assessed as reduction in microbial growth incubated for 48 hrs by broth microdilution method; assay type: functional
Bacteroides fragilis [29] = test: Antibacterial activity against Bacteroides fragilis HM 709 assessed as reduction in microbial growth incubated for 48 hrs by broth microdilution method; assay type: functional
Bacteroides fragilis [30] = test: Antibacterial activity against Bacteroides fragilis HM 718 assessed as reduction in microbial growth incubated for 48 hrs by broth microdilution method; assay type: functional
Bacteroides fragilis [31] = test: Antibacterial activity against Bacteroides fragilis HM 719 assessed as reduction in microbial growth incubated for 48 hrs by broth microdilution method; assay type: functional
Bifidobacterium breve [32] = test: Antibacterial activity against Bifidobacterium breve HM 412 assessed as reduction in microbial growth incubated for 48 hrs by broth microdilution method; assay type: functional
Bifidobacterium longum = test: Antibacterial activity against Bifidobacterium longum HM 846 assessed as reduction in microbial growth incubated for 48 hrs by broth microdilution method; assay type: functional
[33] = system: Bifidobacterium angulatum; test: Antibacterial activity against Bifidobacterium angulatum HM 1189 assessed as reduction in microbial growth incubated for 48 hrs by broth microdilution method; assay type: functional
Bifidobacterium breve [34] = test: Antibacterial activity against Bifidobacterium breve HM1120 assessed as reduction in microbial growth incubated for 48 hrs by broth microdilution method; assay type: functional
Lactobacillus gasseri = test: Antibacterial activity against Lactobacillus gasseri HM 407 assessed as reduction in microbial growth incubated for 48 hrs by broth microdilution method; assay type: functional
Lactobacillus crispatus [35] = test: Antibacterial activity against Lactobacillus crispatus HM 103 assessed as reduction in microbial growth incubated for 48 hrs by broth microdilution method; assay type: functional
Lactobacillus crispatus [36] = test: Antibacterial activity against Lactobacillus crispatus HM 420 assessed as reduction in microbial growth incubated for 48 hrs by broth microdilution method; assay type: functional
Clostridioides difficile [37] = test: Selectivity ratio of MBC for antibacterial activity against Clostridioides difficile NR-32904 to MIC for antibacterial activity against Clostridioides difficile NR-32904; assay type: functional
Clostridioides difficile [38] = test: Selectivity ratio of MBC for antibacterial activity against Clostridioides difficile NR-49278 to MIC for antibacterial activity against Clostridioides difficile NR-49278; assay type: functional
[39] = Stability of compound in LB broth medium at 10 uM incubated for 24 hrs at 37 degC by UHPLC-MS/MS analysis; assay type: physicochemical

UDP-N-acetylglucosamine 1-carboxyvinyltransferase, sequence (P0A749 whole entry): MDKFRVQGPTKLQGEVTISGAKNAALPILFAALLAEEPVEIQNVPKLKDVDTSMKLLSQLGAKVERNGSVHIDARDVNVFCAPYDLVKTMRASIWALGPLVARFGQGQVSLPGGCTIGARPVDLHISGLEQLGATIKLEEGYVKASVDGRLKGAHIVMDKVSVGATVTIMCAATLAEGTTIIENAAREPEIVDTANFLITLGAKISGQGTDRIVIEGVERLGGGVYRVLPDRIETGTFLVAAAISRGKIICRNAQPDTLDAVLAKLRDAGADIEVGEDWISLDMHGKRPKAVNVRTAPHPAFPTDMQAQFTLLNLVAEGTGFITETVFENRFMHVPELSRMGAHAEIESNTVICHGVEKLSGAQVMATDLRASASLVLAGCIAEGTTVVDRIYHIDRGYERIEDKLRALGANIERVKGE
UDP-N-acetylglucosamine 1-carboxyvinyltransferase (Escherichia coli K-12), sequence (P0A749 whole entry): as above

## O=C(Nc1ncc([N+](=O)[O-])s1)C1CN(c2cccc(Cl)c2)N(c2cccc(Cl)c2)C1=O (stereo unspecified)
[1]
  inhibition: 67.6%
[2]
  IC50: 9.8 µM
Staphylococcus aureus [3]
  MIC: 10 µM
Staphylococcus aureus [4]
  MIC: 2 µg/mL
Staphylococcus aureus [5]
  MIC: 4 µg/mL
Streptococcus pneumoniae
  MIC: 4 µg/mL
Enterococcus faecalis
  MIC: > 64 µg/mL
Clostridioides difficile [6]
  MIC: 0.25 µg/mL
Clostridioides difficile [7]
  MIC: 0.5 µg/mL
Clostridioides difficile [8]
  MIC: 0.5 µg/mL
Clostridioides difficile [9]
  MIC: 0.5 µg/mL
Clostridioides difficile [10]
  MIC: 0.5 µg/mL
Clostridioides difficile [11]
  MIC: 0.5 µg/mL
Clostridioides difficile [12]
  MIC: 0.5 µg/mL
Clostridioides difficile [13]
  MIC: 0.25 µg/mL
Clostridioides difficile [14]
  MIC: 0.5 µg/mL
Clostridioides difficile [15]
  MIC: 0.5 µg/mL
Clostridioides difficile [16]
  MIC: 0.5 µg/mL
Clostridioides difficile [17]
  MIC: 0.5 µg/mL
Clostridioides difficile [18]
  MIC: 0.25 µg/mL
Clostridioides difficile [19]
  MIC: 1 µg/mL
Clostridioides difficile [20]
  MIC: 0.5 µg/mL
Clostridioides difficile [21]
  MIC: 0.125 µg/mL
Clostridioides difficile [22]
  MIC: 0.5 µg/mL
Clostridioides difficile [23]
  MBC: 1 µg/mL
Clostridioides difficile [24]
  MBC: 1 µg/mL
Clostridioides difficile [25]
  MBC: 0.5 µg/mL
Clostridioides difficile [26]
  MBC: 0.5 µg/mL
Clostridioides difficile [27]
  MBC: 0.25 µg/mL
Bacteroides fragilis [28]
  MIC: 4 µg/mL
Bacteroides fragilis [29]
  MIC: 4 µg/mL
Bacteroides fragilis [30]
  MIC: 8 µg/mL
Bacteroides fragilis [31]
  MIC: 8 µg/mL
Bifidobacterium breve [32]
  MIC: 64 µg/mL
Bifidobacterium longum
  MIC: 16 µg/mL
[33]
  MIC: 32 µg/mL
Bifidobacterium breve [34]
  MIC: 64 µg/mL
Lactobacillus gasseri
  MIC: > 64 µg/mL
Lactobacillus crispatus [35]
  MIC: > 64 µg/mL
Lactobacillus crispatus [36]
  MIC: > 64 µg/mL
Clostridioides difficile [37]
  Ratio: 1
Clostridioides difficile [38]
  Ratio: 1
[39]
  Stability: Stable

## O=C(Nc1ncc([N+](=O)[O-])s1)C1CN(c2ccc(Cl)cc2)N(c2ccc(Cl)cc2)C1=O (stereo unspecified)
[1]
  inhibition: 70.2%
[2]
  IC50: 10.2 µM
Staphylococcus aureus [3]
  MIC: 10 µM
Staphylococcus aureus [4]
  MIC: 64 µg/mL
Staphylococcus aureus [5]
  MIC: > 64 µg/mL
Streptococcus pneumoniae
  MIC: 64 µg/mL
Enterococcus faecalis
  MIC: > 64 µg/mL
Clostridioides difficile [6]
  MIC: 0.5 µg/mL
Clostridioides difficile [7]
  MIC: 1 µg/mL
Clostridioides difficile [8]
  MIC: 0.25 µg/mL
Clostridioides difficile [9]
  MIC: 0.5 µg/mL
Clostridioides difficile [10]
  MIC: 0.5 µg/mL
Clostridioides difficile [11]
  MIC: 0.5 µg/mL
Clostridioides difficile [12]
  MIC: 1 µg/mL
Clostridioides difficile [13]
  MIC: 0.5 µg/mL
Clostridioides difficile [14]
  MIC: 0.5 µg/mL
Clostridioides difficile [15]
  MIC: 1 µg/mL
Clostridioides difficile [16]
  MIC: 0.5 µg/mL
Clostridioides difficile [17]
  MIC: 0.5 µg/mL
Clostridioides difficile [18]
  MIC: 0.25 µg/mL
Clostridioides difficile [19]
  MIC: 1 µg/mL
Clostridioides difficile [20]
  MIC: 0.5 µg/mL
Clostridioides difficile [21]
  MIC: 0.25 µg/mL
Clostridioides difficile [22]
  MIC: 0.5 µg/mL
Clostridioides difficile [23]
  MBC: 1 µg/mL
Clostridioides difficile [24]
  MBC: 1 µg/mL
Clostridioides difficile [25]
  MBC: 0.5 µg/mL
Clostridioides difficile [26]
  MBC: 0.5 µg/mL
Clostridioides difficile [27]
  MBC: 0.5 µg/mL
Bacteroides fragilis [28]
  MIC: 8 µg/mL
Bacteroides fragilis [29]
  MIC: 4 µg/mL
Bacteroides fragilis [30]
  MIC: 8 µg/mL
Bacteroides fragilis [31]
  MIC: 4 µg/mL
Bifidobacterium breve [32]
  MIC: > 64 µg/mL
Bifidobacterium longum
  MIC: 32 µg/mL
[33]
  MIC: > 64 µg/mL
Bifidobacterium breve [34]
  MIC: > 64 µg/mL
Lactobacillus gasseri
  MIC: > 64 µg/mL
Lactobacillus crispatus [35]
  MIC: > 64 µg/mL
Lactobacillus crispatus [36]
  MIC: > 64 µg/mL
Clostridioides difficile [37]
  Ratio: 1
Clostridioides difficile [38]
  Ratio: 1
[39]
  Stability: Stable
